In patent EP0032314A1, “Aroylpyrrole derivatives, processes for their preparation and their use” (BEECHAM GROUP PLC, priority 1980, dated 1981):

How the values were obtained:
[1] = system: phenylquinone induced mouse writhing; assay: phenylquinone induced mouse writhing test (analgesic activity); type: in vivo; settings: po
Procedure: Analgesic activity was determined using a conventional phenylquinone induced mouse writhing test.

[2] = reported in J. Pharmacol, Exptl. Therap. 1973, 185, 127-138; cited from earlier work
test animals = settings: in vivo

| SMILES | ED50 [1] | anti-inflammatory activity [2] | gastric irritancy (test animals) |
| --- | --- | --- | --- |
| CC(=O)CCc1cc(C)c(C(=O)c2ccc(Cl)cc2)n1C [Example 1, 4-(1,4-dimethyl-p-chlorobenzoyl-2-pyrryl)butan-2-one] | 6.1 mg/kg | – | – |
| Cc1ccc(C(=O)c2ccc(CC(=O)O)n2C)cc1 [Tolmetin] | – | possess anti-inflammatory activity | causes gastric irritancy |
